The subject of one assay is T.b. rhodesiense STIB900. The assay can be described thus: T. b. rhodesiense STIB900 assay (resazurin); SI versus L6 cells. The settings on record: for IC50: T.b. rhodesiense STIB900, 70 h, read-out: Compound activity T.R (IC50); for Selectivity Index T.R: relative to L6 cells. Type of assay: cell-based, Trypanosoma brucei rhodesiense. As for the experimental part: (§1) L6 rat skeletal myoblasts, [29] were purchased from the American Type Culture Collection (ATCC, Rockville, MD, USA; ATCC number CRL 1458). This cell line was used for cytotoxicity testing to calculate an SI against T.b. rhodesiense and screened alongside the T.b. rhodesiense, P. falciparum, T. cruzi and L. donovani assays. L6 were also the host cells for the T. cruzi assay. Assays were performed in 96-well microtiter plates, each well containing 100 µl of RPMI 1640 medium supplemented with 1% L-glutamine (200 mM), 10% FCS, and 4000 L6 cells. Serial drug dilutions of eleven 3-fold dilution steps covering a range from 100 to 0.002 µg/ml were prepared. After 70 hours of incubation the plates were inspected under an inverted microscope to assure growth of the controls and sterile conditions. Ten µl of resazurin solution (resazurin, 12.5 mg in 100 ml double-distilled water) was then added to each well and the plates incubated for another 2 hours. Then the plates were read with a Spectramax Gemini XS microplate fluorometer (Molecular Devices Cooperation, Sunnyvale, CA, USA) using an excitation wavelength of 536 nm and an emission wavelength of 588 nm. Data was analysed using the microplate reader software Softmax Pro (Molecular Devices, USA). Podophyllotoxin was used as a positive control in the assay.
T.b. rhodesiense STIB900 stock was isolated in 1982 from a human patient in Tanzania and after several mouse passages cloned and adapted to axenic culture conditions. Fifty microliters of Minimum Essential Medium (MEM) supplemented with 25 mM HEPES, 1 g/l additional glucose, 1% MEM non-essential amino acids (100×), 0.2 mM 2-mercaptoethanol, 1 mM Na-pyruvate and 15% heat inactivated horse serum was added to each well of a 96-well microtiter plate. Serial drug dilutions of eleven 3-fold dilution steps covering a range from 100 to 0.002 µg/ml were prepared. Four thousand bloodstream form cells of T.b. rhodesiense STIB 900 in 50 µl were added to each well and the plate incubated at 37°C under a 5% CO2 atmosphere for 70 hours. Ten microlitres of resazurin solution (resazurin, 12.5 mg in 100 ml double-distilled water) was then added to each well and incubation continued for a further 2–4 hours. Plates were then read with a Spectramax Gemini XS microplate fluorometer (Molecular Devices, USA) using an excitation wavelength of 536 nm and an emission wavelength of 588 nm. Data was analysed using the microplate reader software Softmax Pro (Molecular Devices, USA). The drug melarsoprol was a positive control against T.b. rhodesiense.

Another assay concerns T.b. brucei. As to the kind of experiment: Time to kill assay (Presto Blue). It is filed as cell-based, Trypanosoma brucei brucei. The settings on record: for IC50: Trypanosoma brucei. As for the experimental part: The starting dose was 40 µM, and the IC50 values were determined from a 16 point dose-response curve. The assay conditions were the same as previously described for the Alamar Blue assay, except that 10 µL of a final 10% concentration of Presto Blue in HMI-9 medium was added as the indicator of viable cells, at various time points. At the first time point, following 20 hours of incubation with compounds, Presto Blue was added to the wells and incubation at 37°C continued. Plates were read every hour and returned to continue incubation at 37°C. This was performed to determine at which time point there was a reproducible signal (Z' of >0.5), using puromycin as a […].

The test system of a further assay is P. falciparum K1 strain. As to the kind of experiment: P. falciparum 3H-hypoxanthine incorporation assay; SI versus L6 cells. It is filed as cell-based, Plasmodium falciparum. The settings on record: for IC50: Plasmodium falciparum, K1, L6, read-out: Compound activity P.F (IC50); for Selectivity Index P.F: relative to L6 cells. How it is done:
as §1
Compounds dissolved in DMSO at 10 mg/ml were added to parasite cultures incubated in RPMI 1640 medium without hypoxanthine, supplemented with HEPES (5.94 g/l), NaHCO3 (2.1 g/l), neomycin (100 U/ml), Albumax (5 g/l) and washed human A^+ red blood cells at 2.5% haematocrit (0.3% parasitaemia). Serial drug dilutions of eleven 3-fold dilution steps covering a range from 100 to 0.002 µg/ml were prepared. The 96-well plates were incubated in a humidified atmosphere at 37°C; 4% CO2, 3% O2, 93% N2. After 48 hours, 50 µl of ^3H-hypoxanthine ( = 0.5 µCi) was added to each well of the plate. The plates were incubated for a further 24 hours under the same conditions. The plates were then harvested with a Betaplate cell harvester (Wallac, Zurich, Switzerland), and the red blood cells transferred onto a glass fibre filter then washed with distilled water. The dried filters were inserted into a plastic foil with 10 ml of scintillation fluid, and counted in a Betaplate liquid scintillation counter (Wallac, Zurich, Switzerland). IC50 values were calculated from sigmoidal inhibition curves using Microsoft Excel.

A further assay concerns mammalian cell lines. To be noted: cited from earlier work.
[1] abbreviates: 29 hours after addition of compound, 2 experiments, read-out: Activity (IC50 value) 29 hours.
Where [2] appears, read: 48 hours after addition of compound, read-out: Activity (IC50 value) 48 hours.
Setting [3] is: read-out: Activity (IC50 value) 72 hours, 72 hours after addition of compound.

Values joined by “and” are separate entries in the source; they are usually repeats but may differ in a detail not shown here. Equal entries are not always repeated. Where two headings read alike, the source gives them in different places. A value given as a limit tells only on which side of the number the result lay.

A word on the IC50: it is the midpoint of a concentration-inhibition curve. Turning to `CC(C)(C)C(=O)NCCc1csc(-c2cccc(F)c2)n1` [Compound 1], the IC50 worked out at 1470 ± 390 nM in the assay on T.b. rhodesiense STIB900; 1500 nM in the assay on T.b. rhodesiense STIB900 (Trypanosoma brucei, L6, 70 h); 898 ± 332 nM in the assay on T.b. brucei (setting [1]); 691 ± 66.4 nM with T.b. brucei (setting [2]); 1030 ± 18.4 nM with T.b. brucei (setting [3]); 35.4 ± 2.75 µM in the assay on P. falciparum K1 strain. Also, the “Selectivity Index T.R” value in the assay with T.b. rhodesiense STIB900 was 42 and 42.3. Further, in the assay with P. falciparum K1 strain, the “Selectivity Index P.F” value is 1.76.

As for `O=C(NCCc1n[nH]c(-c2ccc(F)cc2)n1)c1cccc(F)c1` [Compound 2], the IC50 in the assay on T.b. rhodesiense STIB900 was determined as 6770 ± 545 nM; in the assay on T.b. rhodesiense STIB900 (Trypanosoma brucei, L6, 70 h) it was 6800 nM; in the assay on T.b. brucei (setting [1]), 4840 ± 449 nM; in the assay on T.b. brucei (setting [2]), 3830 ± 873 nM; in the assay with T.b. brucei (setting [3]), 500 ± 43.1 nM; in the assay with P. falciparum K1 strain, 23.9 ± 8.48 µM. In addition, the “Selectivity Index P.F” value in the assay with P. falciparum K1 strain is 5.00.

For the compound `CCOc1ccc(OCc2ccc(C(=O)N3CCCC(C)C3)cc2)cc1` (stereo not shown) [Compound 3], in the assay on T.b. rhodesiense STIB900, the IC50 was 854 ± 332 nM; the “Selectivity Index T.R” value is 60 and 58.5. The IC50 in the assay on T.b. rhodesiense STIB900 (Trypanosoma brucei, L6, 70 h) was determined as 850 nM. In the assay with P. falciparum K1 strain, the IC50 is 14.3 ± 6.64 µM and the “Selectivity Index P.F” value is on record as 3.48.

Consider `Cc1cc(O)nc(-n2nc(C)cc2NC(=O)C2CCCC2)n1` [Compound 4], for which the IC50 came out at 4850 ± 2080 nM with T.b. rhodesiense STIB900; 4800 nM with T.b. rhodesiense STIB900 (Trypanosoma brucei, L6, 70 h); 8.17 ± 4 µM with P. falciparum K1 strain. Further, the “Selectivity Index T.R” value in the assay with T.b. rhodesiense STIB900 is 0.19 and 0.186. Moreover, the “Selectivity Index P.F” value with P. falciparum K1 strain was 0.110.

As for `CCS(=O)(=O)N1CCCc2ccc(NS(=O)(=O)c3ccccc3F)cc21` [Compound 5], the IC50 is 14000 nM and 14400 nM in the assay on T.b. rhodesiense STIB900; under 10000 nM in the assay on T.b. rhodesiense STIB900 (Trypanosoma brucei, L6, 70 h); 12.6 ± 5.87 µM in the assay on P. falciparum K1 strain. The “Selectivity Index P.F” value with P. falciparum K1 strain was found to be 1.72.

For the compound `CCC(C)NC(=O)c1nc(-c2ccccc2)cnc1N` (stereo not shown) [Compound 6], the IC50 came out at 967 ± 450 nM in the assay with T.b. rhodesiense STIB900; 970 nM in the assay with T.b. rhodesiense STIB900 (Trypanosoma brucei, L6, 70 h); 3090 ± 1380 nM with T.b. brucei (setting [1]); 177 ± 11 nM with T.b. brucei (setting [2]); 111 ± 50.2 nM in the assay on T.b. brucei (setting [3]); 11.3 ± 4.79 µM in the assay on P. falciparum K1 strain. In the assay on T.b. rhodesiense STIB900, the “Selectivity Index T.R” value is 18 and 18.4. Also, the “exposure time at which stable/maximum IC50 value was reached” value in the assay with T.b. brucei was determined as 48 h. Further, in the assay with P. falciparum K1 strain, the “Selectivity Index P.F” value is 1.58.

Take `O=C(Nc1ccc(Cl)c(-c2nc3ncccc3o2)c1)c1ccco1` [Compound 7]: the IC50 turned out to be 586 ± 73 nM in the assay with T.b. rhodesiense STIB900; 590 nM in the assay on T.b. rhodesiense STIB900 (Trypanosoma brucei, L6, 70 h); 178 ± 7 nM in the assay on T.b. brucei (setting [1]); 142 ± 38.7 nM with T.b. brucei (setting [2]); 220 ± 17.6 nM in the assay with T.b. brucei (setting [3]); 7.76 ± 3.22 µM with P. falciparum K1 strain.

On to `CCc1ccccc1N=C(NCCN1CCOCC1)NC(=O)c1ccccc1` [Compound 8], for which the IC50 in the assay with T.b. rhodesiense STIB900 was determined as 875 ± 65 nM; in the assay with T.b. rhodesiense STIB900 (Trypanosoma brucei, L6, 70 h) it was 880 nM; with P. falciparum K1 strain it was 5.33 ± 2.04 µM. Further, in the assay on T.b. rhodesiense STIB900, the “Selectivity Index T.R” value is on record as 150. For the same compound, the “Selectivity Index P.F” value in the assay with P. falciparum K1 strain is 24.8.

As for `N=C(N)c1ccc(OCCCCCOc2ccc(C(=N)N)cc2)cc1` [Pentamidine, pentamidine, reference compound], the “activity reported for some mammalian cell lines” value in the assay on mammalian cell lines is reported as “low µM activity”. Also, the “exposure time at which stable/maximum IC50 value was reached” value with T.b. brucei worked out at 48 h. Besides, the IC50 with T.b. brucei (setting [1]) is 9.13 ± 2.76 nM; with T.b. brucei (setting [2]), 3.41 ± 0.661 nM; with T.b. brucei (setting [3]), 4.66 ± 0.936 nM.

On to `COc1ccc(C[C@H](N)C(=O)N[C@H]2[C@@H](O)[C@H](n3cnc4c(N(C)C)ncnc43)O[C@@H]2CO)cc1` [Puromycin, puromycin, reference compound], for which the “exposure time at which stable/maximum IC50 value was reached” value in the assay on T.b. brucei came out at 48 h. Moreover, the values for the IC50 in the assay on T.b. brucei (setting [1]), in the assay with T.b. brucei (setting [2]) and with T.b. brucei (setting [3]) were 152 ± 65.4 nM, 58.1 ± 10.1 nM and 68.6 ± 0.283 nM, respectively.

The values are drawn from paper PMC3510080, “Identification of Compounds with Anti-Proliferative Activity against Trypanosoma brucei brucei Strain 427 by a Whole Cell Viability Based HTS Campaign” (PLoS Neglected Tropical Diseases, 2012).
